Results: patent US4749686A, “Combinations of renal vasodilators and α1 -adrenergic or ganglionic blocking agents and methods for treating diseases” (New York Medical College, priority 1986, dated 1988)
Entries after “also recorded” stand apart in the source; their conditions may differ.

Test system: conscious dogs
Assay: one-hour infusion of atriopeptin 24 in conscious dogs, renal hemodynamics and function, before and after α1-adrenergic receptor blockade
Assay type: in vivo, dog
Details: prazosin 1 mg/kg 40 minutes prior to one-hour atriopeptin 24 infusion
Protocol: In this example, I first infused conscious dogs for one hour with atriopeptin 24 and measured the effects on renal hemodynamics and function. At least one week later, I treated the same dogs with the α1 -adrenergic blocking agent, prazosin, 40 minutes prior to a one-hour atriopeptin 24 infusion.
The experiments were conducted using the following techniques and devices: female mongrel dogs were instrumented using sterile surgical techniques under sodium pentobarbital anesthesia (25 mg/kg). To measure renal blood flow, a Doppler ultrasonic flow transducer (Parks Electronics) was placed around the left renal artery. […]
Arterial pressure was recorded using the implanted catheter attached to a Statham P23Db strain gauge transducer. Renal blood flow was measured using an ultrasonic flowmeter (Model 806A, Parks Electronics) and the implanted Doppler flow transducer. Phasic arterial pressure and renal blood flow were recorded on magnetic tape (Bell and Howell 3700B) and played back on a direct writing oscillograph (Gould-Brush 2800S). […] Heart rate was calculated using a cardiotachometer (Beckman Model 80574) from the pressure pulse interval.
To measure renal function, urine samples were taken from the dogs, urine volume was measured and the concentration of urine and plasma sodium (Na) and potassium (K) was assayed using a flame photometer (Instrumentation Laboratories, Model 343). […]

COc1cc2nc(N3CCN(C(=O)c4ccco4)CC3)nc(N)c2cc1OC [prazosin]
effect of α1-adrenergic blockade on renal vasodilation produced by atriopeptin 24: renal blood flow remained elevated for the duration of the atriopeptin 24 infusion; also recorded: caused a sustained renal vasodilation
